Data published in patent publication US20060135587A1, “Method and compounds for promoting healing and reducing inflammation” (priority 2002, published 2006).

Legend:
[1] = system: carbon tetrachloride-induced liver damage; assay: Carbon tetrachloride-induced liver damage in rats; assay type: in vivo; conditions: 20 mg/kg orally; CCl4 intoxication
Procedure: The prophylactic and therapeutic effects of Compound 2 on liver damage were examined in a carbon tetrachloride intoxication model. Liver dysfunction was induced by the […] injection of a liquid paraffin-based 50% carbon tetrachloride solution at a dose of 0.8 ml per 100 g of body mass daily for four days. Inbred male white rats weighing 200-220 g were treated with Compound 2 at a dose of 20 mg/kg given orally by intragastric tube on the eighth day after injection of carbon tetrachloride, and daily for four days thereafter. Control animals received carbon tetrachloride only. Animals were sacrificed 7 days after the last injection of carbon tetrachloride, when the morphological changes are most pronounced, and samples of liver were taken for histology.

myocardial infarction = assay: Clinical study in subacute phase of myocardial infarction (Example 24); assay type: in vivo, human
Procedure: The effect of Compound 2 therapy in patients suffering from the subacute phase of myocardial infarction (MI) was assessed. The patients were divided into two groups. There were no substantial differences between the groups in terms of age and basic features of necrotic foci. Each patient continued to receive the treatment which s/he had been given prior to commencement of the trial. Compound 2 was administered in addition to the previous treatment. The first group included 63 patients who received conventional therapy, i.e. nitrates, anticoagulants and/or hypotensive agents as appropriate, and the second group comprised 44 patients who were treated with Compound 2 at a dose of 600 mg per day from the 7th to the 28th day after diagnosis of myocardial infarction, in addition to receiving conventional treatment. The control group included 14 healthy men aged from 26 to 42. The average age of patients in the first group was 50.3 years, and in the second group, 49.5 years.
Clinical evidence from daily examinations of both groups and the results of electrocardiagraphic examination in 12 abductions were assessed over the entire observation period. A number of analyses were made on the 7th and 28th day of progress of MI, including clinical blood count, plasma bilirubin, sugar, creatinine, cholesterol, β3-lipoproteins, potassium and sodium, and urine analysis; the activity of the prothrombin complex and the time of re-calcification were also determined. Central haemodynamics were examined using the method of body integral rheography, whereby the stroke volume and cardiac indices were calculated. Indices of left ventricular contractility—terminal diastolic volume, ejection fraction, and the extent of systolic contraction of anteroposterior cavity dimensions (% ΔS)— were examined using the echography method using an Aloka SSD-119 apparatus (Japan). Central and intracardiac haemodynamics was investigated on the 1st, 7th; 14th, 21st and 28th days of the disease.

[2] = system: regeneration of liver after partial hepatectomy; assay: Liver regeneration after partial hepatectomy in rats; assay type: in vivo; conditions: for Level of recovery: 7 days, hepatectomy alone = 100
Procedure: Partial hepatectomy was performed using the conventional method (Higgins and Anderson, 1931) by removing the left lateral and central lobes of the liver from 80 male white rats, weighing 180-200 g.
Compound 2, Compound 4, Compound 5 or Compound 6 was administered to the experimental groups intraperitoneally in equimolar doses of 0.1 mM/kg and 0.2 mM/kg. These optimal doses were determined in preliminary experiments. The control group received intraperitoneal injections of saline solution. The compounds were administered on the day after the operation and then one injection was given daily over the course of 7 days, since maximum growth of the liver mass in rats is observed in the first 7 days after partial hepatectomy (Solopaev, 1980).
The effectiveness of the compounds was compared to that of a combination of non-steroid anabolic regeneration stimulators which are used in the treatment of liver pathology, namely Riboxin and potassium orotate at a dose of 0.2 mM/kg each (Rychnev and Frolov, 1984).
For quantitative evaluation of the regeneration process in the liver the coefficient of regeneration completion as determined by the formula below was used: [formula] where
Stimulation of the regeneration of tissue after hepatectomy in response to different medicinal preparations is associated with an increase in the synthesis of nucleic acids, as indicated by the increase in the content of RNA and DNA in the regenerated tissue. Quantitative analysis of DNA and RNA was performed by centrifugation. […] The enzymic component of anti-oxidant protection was also assessed on the basis of the activity of catalase and superoxidedismutase (SOD).
5 ml of […] of HCIO4 solution were added to the sample (100 mg). In order to ensure complete sedimentation of the acid-insoluble fraction, the beakers were put in ice for 15 minutes. Then they were centrifuged for 10 minutes at 5000 revolutions per minute. The sediment was washed twice with 0.2 M HCIO4. After the final centrifugation, the walls of the beaker were carefully dried with gauze and filter paper. The sediment was ground down with a glass pestle, suspended in 1 ml of water and then 1 ml of 0.6 M KON solution was added at room temperature. Hydrolysis was performed over the course of 1 hour at 37° C., then the beakers were put in ice to stop the hydrolysis process. 4 ml of the 0.6 M solution were added to each beaker and the beakers were left in ice for another 15 minutes, then centrifuged for 15 minutes at 5000 revolutions per minute. The supernatant was used to determine the RNA by UV absorption at 260 nm and 290 nm compared to the control sample containing 0.4M of HCIO4). The amount of RNA in μg per 1 ml of the supernatant was calculated using the following formula: [formula] where C=is the RNA concentration (μg/ml)
DNA analysis was carried out on the sediment remaining after the alkaline hydrolysis used to determine RNA. 0.5 M of HCIO4 (5 ml per sample) was poured into the dried beaker containing the sediment. Hydrolysis was performed in a boiling water bath for 20 minutes. The amount of DNA in μg per 1 ml of the hydrolysate was calculated using the following formula: [formula] where C=is the DNA concentration (μg/ml). Catalase Activity
Catalase activity was determined using the permanganate method. The optimal amount of the substrate (3 ml of 1% H2O2) and 1 ml of the enzyme were added to 10 ml of phosphate buffer, pH 7.8. After 10 minutes the reaction was stopped by adding 1.5 ml of H2SO4 (50%). The remaining hydrogen peroxide was filtered with 0.1M of KMnO4 solution. Catalase activity was calculated on the basis that 1 ml of 0.1M of KMnO4 solution corresponds to […] of H2O2.
SOD activity was determined using the dianisidine method, which is based on the fact that under ultraviolet irradiation Riboflavin (Rb) is converted to an excited (ionised) state and therefore becomes able to attack reduced dianisidine (DH2). […]

CC[n+]1cn(C)c(C(=O)NC)c1C(=O)NC.O=S(=O)([O-])c1ccccc1 [Compound 2, 1-methyl-3-ethyl-4,5-bis(N-methylcarbamoyl)-imidazolium benzenesulfonate]
Average mitotic index [1]: 0.021 ± 0.001 arbitrary | Elimination of glycogen from damaged zones (arbitrary) [1]: 4.9 ± 0.4 arbitrary | Necrosis of hepatocytes (arbitrary) [1]: 2.7 ± 0.3 arbitrary | left ventricular myocardial contractility (myocardial infarction; 600 mg per day combined with conventional therapy): increased the rate and extent of regeneration of left ventricular myocardial contractility | clinical side effects (myocardial infarction; 600 mg per day, 7th to 28th day of the disease): did not produce any clinical side effects | serum bilirubin (myocardial infarction; 600 mg per day, does not exceed the upper limit of standard values): increase in unconjugated and hence total bilirubin in serum | Catalase E activity ([2]; 0.1 mM/kg): 18.0 ± 3.1 μgM/min/g tissue × 1000 | DNA content (in mg/g of tissue) ([2]; 0.1 mM/kg): 4.2 ± 0.37 mg/g of tissue | Protein content ([2]; 0.1 mM/kg): 86.4 ± 9.8 Mg/g tissue | RNA content (mg/g of tissue) ([2]; 0.1 mM/kg): 7.07 ± 0.18 mg/g of tissue | SOD activity ([2]; 0.1 mM/kg): 78.9 ± 5.8 Units/g tissue | Level of recovery ([2]; 0.1 mM/kg intraperitoneally): 150.5 | DNA content higher than in animals undergoing hepatectomy alone ([2]; 0.1 mM/kg or 0.2 MM/kg): 15% | Catalase E activity ([2]; 0.2 mM/kg): 20.0 ± 1.92 μgM/min/g tissue × 1000 | DNA content (in mg/g of tissue) ([2]; 0.2 mM/kg): 4.1 ± 0.13 mg/g of tissue | Protein content ([2]; 0.2 mM/kg): 94.8 ± 8.4 Mg/g tissue | RNA content (mg/g of tissue) ([2]; 0.2 mM/kg): 6.96 ± 0.39 mg/g of tissue | SOD activity ([2]; 0.2 mM/kg): 98.0 ± 4.6 Units/g tissue | Level of recovery ([2]; 0.2 mM/kg intraperitoneally): 134.9 | increase of the organ regeneration completeness ratio ([2]; 0.1 and 0.2 mM/kg): 34.9-50.5%
